Measurements taken from publication PMC9501899 (Journal of the American Chemical Society, 2022).

What was measured:
WT LRRK2 = molecular target: T1, WT LRRK2 (Mus musculus, UniProt Q5S006); assay: LRRK2 degradation in WT MEFs by Western blotting; type: cell-based; conditions: 4 h
T1 construct: endogenous in cells; host or cells: wild-type primary MEFs
Experimental: (§1) These PROTACs were then biologically evaluated in mouse embryonic fibroblasts (MEFs) by Western blotting. Briefly, MEFs were treated with compounds at 33 nM and 1 μM for 4 h (Figure 2) and 24 h (Figure S2) separately, and the intracellular level of LRRK2, phosphorylated LRRK2 at Ser935, and phosphorylated Rab10 (pRab10) at Thr73 was determined. Rab10[5],[49] is one of the bona fide substrates of LRRK2, whose phosphorylation status is directly affected by the LRRK2 kinase activity and protein level. Phosphorylation of LRRK2 at Ser935 is a well-studied biomarker site used to assess the efficacy of type 1 LRRK2 inhibitors.[30]
(§2) Primary MEFs were generated as described in a previous study.[80] Briefly, the uterine horn was collected from adult female mice at day E12.5 and transferred to a 10 cm tissue culture dish containing cold PBS. Two forceps were used to tear the yolk sacs to isolate each embryo. Forceps were cleaned thoroughly with 70% ethanol between each embryo isolation. The embryos were culled, and a tissue piece was collected in a polymerase chain reaction (PCR) tube for genotyping. The red tissue of the embryo was removed, and the remainder was minced with a scalpel blade and incubated with a 7.5 mL trypsin–ethylenediaminetetraacetic acid (EDTA) solution for 10 min in a 37 °C, 5% CO2 tissue culture incubator. The dish was removed from the incubator and checked under a light microscope for single cells. Complete media (7.5 mL) was added to the trypsinized cells, and the cell suspension was transferred to a 15 mL Falcon tube and centrifuged at 1200 rpm for 5 min at room temperature. The trypsin was aspirated, the cell pellet was resuspended in a 5 mL fresh complete media, and the cell suspension was plated in a 60 mm tissue culture dish and incubated in a 37 °C, 5% CO2 tissue culture incubator. The MEFs at this stage were considered as passage 0 and were passaged and expanded for experimental use once the genotype was confirmed by allelic sequencing and immunoblotting. MEFs were cultured in Dulbecco’s modified Eagle’s medium (DMEM) containing 10% (v/v) fetal bovine serum (FBS), 2 mM L-glutamine, 100 U/mL penicillin, and 100 μg/mL streptomycin supplemented with 1× nonessential amino acids and 1 mM sodium pyruvate.
(§3) Culturing and passaging of adherent cell lines were carried out using an aseptic technique in CL1 or CL2 (for PBMC isolation) biological safety cabinets. All cells were incubated in a 37 °C incubator with 5% CO2. Cell lines were regularly tested for mycoplasma contamination. For Western blot assay, the cells were seeded in six-well plates. For immunoprecipitation of LRRK2, SH-SY5Y cells (cultured in DMEM-F12, supplemented with 15% (v/v) FBS, 100 U/mL penicillin and 100 μg/mL streptomycin, 1× nonessential amino acids, and 1 mM sodium pyruvate) were seeded in a 10 cm dish. All cells were treated with the indicated compounds such that the final concentration of DMSO was 0.1%. Following the treatment of cells with compounds at indicated concentrations and time periods, the media was removed and the cells were washed with PBS and lysed in a 100 μL ice-cold complete lysis buffer containing 50 mM tris–HCl pH 7.4, 1 mM EGTA, 10 mM 2-glycerophosphate, 50 mM sodium fluoride, 5 mM sodium pyrophosphate, 270 mM sucrose, supplemented with 1 μg/mL microcystin-LR, 1 mM sodium orthovanadate, complete EDTA-free protease inhibitor cocktail (Roche), and 1% (v/v) Triton X-100. The cells were immediately placed on ice and were scraped and collected into 1.5 mL Eppendorf tubes. Cell lysates were incubated on ice for 10 min prior to centrifugation at 15 000g at 4 °C for 15 min.

G2019S LRRK2 = molecular target: T2, G2019S LRRK2 (Mus musculus, UniProt Q5S006, G2019S); assay: LRRK2 degradation in G2019S LRRK2 MEFs by Western blotting; type: cell-based
T2 construct: endogenous in cells; host or cells: G2019S LRRK2 MEFs
Experimental: as §1, §2, §3

Rab10-pThr73 [1] = assay: Rab10 dephosphorylation in WT MEFs by Western blotting; type: cell-based, mouse; conditions: Mus musculus; 4 h, WT MEFs; read-out: EC50 WT-pRab10
Experimental: as §1, §2, §3

Rab10-pThr73 [2] = assay: Rab10 dephosphorylation in G2019S LRRK2 MEFs by Western blotting; type: cell-based, mouse
Experimental: as §1, §2, §3

LRRK2 = assay: Western blot screening of PROTACs in WT and G2019S LRRK2 MEFs; type: cell-based, mouse
Experimental: as §1, §2
Culturing and passaging of adherent cell lines were carried out using an aseptic technique in CL1 or CL2 (for PBMC isolation) biological safety cabinets. All cells were incubated in a 37 °C incubator with 5% CO2. Cell lines were regularly tested for mycoplasma contamination. For Western blot assay, the cells were seeded in six-well plates.

T2 sequence (Q5S006 whole entry G2019S): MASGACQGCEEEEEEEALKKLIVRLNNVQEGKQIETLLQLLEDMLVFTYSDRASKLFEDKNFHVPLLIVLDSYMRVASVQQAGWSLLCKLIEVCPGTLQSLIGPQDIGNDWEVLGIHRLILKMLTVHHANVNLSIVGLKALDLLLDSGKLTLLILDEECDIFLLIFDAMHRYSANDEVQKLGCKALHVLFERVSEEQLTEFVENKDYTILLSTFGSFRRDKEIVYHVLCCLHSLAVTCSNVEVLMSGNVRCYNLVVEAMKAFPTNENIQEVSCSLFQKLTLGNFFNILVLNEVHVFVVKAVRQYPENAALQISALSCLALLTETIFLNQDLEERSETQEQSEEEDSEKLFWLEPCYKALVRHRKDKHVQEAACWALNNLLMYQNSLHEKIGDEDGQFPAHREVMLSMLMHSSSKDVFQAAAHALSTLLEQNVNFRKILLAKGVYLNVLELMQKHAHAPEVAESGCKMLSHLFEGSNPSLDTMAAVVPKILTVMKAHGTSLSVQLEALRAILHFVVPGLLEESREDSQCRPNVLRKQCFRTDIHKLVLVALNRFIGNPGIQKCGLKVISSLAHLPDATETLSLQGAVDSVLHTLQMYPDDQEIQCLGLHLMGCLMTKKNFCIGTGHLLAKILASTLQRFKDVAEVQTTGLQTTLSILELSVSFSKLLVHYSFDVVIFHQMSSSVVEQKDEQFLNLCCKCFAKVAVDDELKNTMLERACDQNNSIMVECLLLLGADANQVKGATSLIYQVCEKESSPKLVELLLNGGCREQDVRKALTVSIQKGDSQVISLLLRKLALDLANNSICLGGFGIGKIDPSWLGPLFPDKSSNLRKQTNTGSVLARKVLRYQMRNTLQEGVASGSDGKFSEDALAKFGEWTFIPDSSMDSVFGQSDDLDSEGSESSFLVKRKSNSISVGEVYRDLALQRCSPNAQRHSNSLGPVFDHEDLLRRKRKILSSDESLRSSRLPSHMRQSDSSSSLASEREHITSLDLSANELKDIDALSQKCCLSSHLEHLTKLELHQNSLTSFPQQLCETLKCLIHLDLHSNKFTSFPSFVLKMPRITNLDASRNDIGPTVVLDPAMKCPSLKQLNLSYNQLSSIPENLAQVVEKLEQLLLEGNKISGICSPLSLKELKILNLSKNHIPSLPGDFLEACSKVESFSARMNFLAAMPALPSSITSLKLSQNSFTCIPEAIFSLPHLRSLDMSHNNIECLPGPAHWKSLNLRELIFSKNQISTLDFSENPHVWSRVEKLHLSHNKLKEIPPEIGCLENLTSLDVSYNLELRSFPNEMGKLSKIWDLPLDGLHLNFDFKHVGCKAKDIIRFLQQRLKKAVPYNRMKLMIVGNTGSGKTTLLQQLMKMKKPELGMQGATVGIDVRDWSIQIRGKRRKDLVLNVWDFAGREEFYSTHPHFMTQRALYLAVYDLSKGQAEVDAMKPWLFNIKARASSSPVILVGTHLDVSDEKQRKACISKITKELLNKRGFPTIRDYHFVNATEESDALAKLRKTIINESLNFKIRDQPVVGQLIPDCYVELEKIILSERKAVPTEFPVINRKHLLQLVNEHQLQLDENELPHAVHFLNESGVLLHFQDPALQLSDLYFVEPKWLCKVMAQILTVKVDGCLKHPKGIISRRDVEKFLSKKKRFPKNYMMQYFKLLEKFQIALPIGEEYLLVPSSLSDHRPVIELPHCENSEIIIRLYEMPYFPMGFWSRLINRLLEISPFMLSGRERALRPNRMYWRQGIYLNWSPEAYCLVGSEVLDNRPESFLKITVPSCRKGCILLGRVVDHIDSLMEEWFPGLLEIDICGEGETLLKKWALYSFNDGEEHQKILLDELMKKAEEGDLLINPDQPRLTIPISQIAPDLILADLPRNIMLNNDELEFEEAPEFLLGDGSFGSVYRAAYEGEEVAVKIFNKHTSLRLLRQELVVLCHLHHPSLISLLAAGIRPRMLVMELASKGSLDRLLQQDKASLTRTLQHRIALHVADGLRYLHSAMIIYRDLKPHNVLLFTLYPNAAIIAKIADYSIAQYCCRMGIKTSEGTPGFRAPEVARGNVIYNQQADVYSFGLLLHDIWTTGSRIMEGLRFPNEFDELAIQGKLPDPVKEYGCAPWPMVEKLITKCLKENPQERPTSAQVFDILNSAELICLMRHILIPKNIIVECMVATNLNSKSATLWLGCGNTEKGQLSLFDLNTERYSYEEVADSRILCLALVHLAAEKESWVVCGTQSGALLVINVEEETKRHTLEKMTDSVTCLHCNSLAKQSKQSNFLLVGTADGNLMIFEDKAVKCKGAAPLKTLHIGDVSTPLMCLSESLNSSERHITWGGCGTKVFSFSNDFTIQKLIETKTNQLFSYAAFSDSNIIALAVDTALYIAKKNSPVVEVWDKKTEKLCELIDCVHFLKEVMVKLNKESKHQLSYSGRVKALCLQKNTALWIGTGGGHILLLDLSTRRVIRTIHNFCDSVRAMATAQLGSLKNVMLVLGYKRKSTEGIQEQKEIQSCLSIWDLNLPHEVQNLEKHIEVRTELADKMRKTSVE
T1 sequence (Q5S006 whole entry): as the sequence (Q5S006 whole entry G2019S) above, with S2019G counted along it

For `CNc1nc(Nc2ccc(C(=O)N3CCOCC3)cc2OC)ncc1Cl` [HG-10-102-01, reference compound], which “degradation of WT LRRK2 (in words)” value (WT LRRK2) is on record?
Its value is “did not degrade LRRK2”.

And the “degradation of G2019S LRRK2 (in words)” value (G2019S LRRK2; 4 h)?
The value was “did not degrade LRRK2”.

What about the EC50 (Rab10-pThr73 [1]) of the same molecule?
Its EC50 is 214 nM.

What about the EC50 (Rab10-pThr73 [2]; Mus musculus, 4 h, G2019S LRRK2 MEFs, read-out: EC50 G2019S pRab10) of the same molecule?
Its EC50 is 110 nM.

How did the “G2019S LRRK2 degraded” value (G2019S LRRK2; 33 nM/4 h) turn out when `CNc1nc(Nc2ccc(C(=O)N3CCN(CCCOc4cc(-c5scnc5C)ccc4CNC(=O)[C@@H]4C[C@@H](O)CN4C(=O)[C@@H](NC(=O)C4(F)CC4)C(C)(C)C)CC3)cc2OC)ncc1Cl` [SD13] was run?
Its value is 60%.

What about the “G2019S LRRK2 degraded” value (G2019S LRRK2; 33 nM/24 h) of the same molecule?
The value was 68%.

For `CNc1nc(Nc2ccc(C(=O)N3CCN(Cc4ccc(CSC(C)(C)C(NC(=O)C5(F)CC5)C(=O)N5CC(O)CC5C(=O)NCc5ccc(-c6scnc6C)cc5)cc4)CC3)cc2OC)ncc1Cl` (stereo not drawn) [SD100], which pRab10 dephosphorylated (Rab10-pThr73 [2]; 1 µM) is on record?
Its pRab10 dephosphorylated is 75–90%.

And the “degradation of LRRK2” value (LRRK2; 0.033 µM)?
The value was under 40%.

What about the “degradation of LRRK2 (in words)” value (LRRK2; 33 nM/4 h, WT and G2019S LRRK2 MEFs) of the same molecule?
The value was “little to no degradation”.
